Key:
[1] = tested on: mouse Foxp3 locus; assay: Zebrafish microinjected with renilla-tagged mouse Foxp3 BAC; type: in vivo; settings: total zebrafish lysates six days after microinjection, increasing amounts of TCDD
Description: A modified zebrafish based screening assay was established by microinjecting fertilized zebrafish eggs with a BAC construct encoding the complete mouse Foxp3 locus, with a renilla reporter inserted after the Foxp3 methionine start codon (ATG). Six days after microinjection, renilla activity was determined in total zebrafish lysates.

[2] = tested on: IgG serum antibodies to myelin antigens; assay: Antigen microarray of serum antibody response to myelin; type: in vivo, mouse; settings: TCDD-treated mice that did not develop EAE, FDR < 0.05
Description: The antigens listed in Table 1 were spotted onto Epoxy slides (TeleChem, Sunnyvale, Calif., USA) as described (Quintana et al., Proc Natl Acad Sci USA 101 Suppl 2, 14615-21 (2004)). Antigens were spotted in replicates of 6, the microarrays were blocked for 1 h at 37° C. with 1% bovine serum albumin, and incubated for 2 hours at 37° C. with a 1:100 dilution of the test serum in blocking buffer. The arrays were then washed and incubated for 45 min at 37° C. with goat anti-mouse IgG Cy3-conjugated detection antibodies (Jackson ImmunoResearch Labs, West Grove, Pa., USA). The arrays were scanned with a ScanArray 4000X scanner (GSI Luminomics, Billerica, Mass., USA). Antigen reactivity was defined by the mean intensity of binding to the replicates of that antigen on the microarray. Raw data were normalized and analyzed using the GeneSpring software (Silicon Genetics, Redwood City, Calif., USA) with the non-parametric Wilcoxon-Mann-Whitney test, using the Benjamini and Hochberg method with a false discovery rate (FDR) of 0.05 to determine significance. The samples were clustered using a pairwise average linkage algorithm based on Spearman's rank correlation as a distance measure. […]

[3] = tested on: CD4+CD25- T cells; assay: CD4+CD25- T cells activated with antibodies to CD3 in the presence of TCDD; type: cell-based, mouse; settings: incubation with TCDD
Description: To rule out any direct cytotoxic or pro-apoptotic effect of TCDD on effector T cells, purified mouse CD4^+CD25^− T cells were activated in vitro with antibodies to CD3 in the presence of TCDD.

[4] = tested on: AHR-d mice; assay: EAE induced with MOG35-55/CFA in AHR-d mice; type: in vivo; settings: TCDD 1 μg/mouse
Description: C57BL/6 mice were given a single intraperitoneal (ip) dose of TCCD, and one day later EAE was induced by immunization with MOG35-55 in CFA. TCDD was also administered orally (1 μg/mouse) to determined whether an effective dose of this ligand can be delivered via oral administration and whether this dose is capable of reducing EAE development. EAE was induced by injecting the mice subcutaneously with […] of the MOG35-55 peptide ([…] (SEQ ID NO: 156)) in complete Freund adjuvant oil. In addition, the mice received 150 ng of pertussis toxin (Sigma-Aldrich) ip on days 0 and 2. Clinical signs of EAE were assessed according to the following score: 0, no signs of disease; 1, loss of tone in the tail; 2, hind limb paresis; 3, hind limb paralysis; 4, tetraplegia; 5, moribund.
To confirm that the effects on EAE were mediated by the activation of AHR, we used C57BL/6 mice carrying the d allele of the ahr gene (AHR-d mice). This allele codes for a mutant AHR with a 10 fold reduction in its affinity for TCDD and other ligands (Okey et al., Mol Pharmacol. 35, 823-30 (1989)) due to mutations in its ligand binding sites.

[5] = tested on: zFoxp3; assay: zFoxp3 expression in zebrafish embryos by real time PCR; type: in vivo; settings: 3-day post-fertilization zebrafish embryos, TCDD in water, 72 hours
Description: The expression of zFoxp3 was then analyzed by real-time PCR on FACS-sorted lymphocytes, myelomonocytes and erythrocytes (Traver et al., Nat Immunol 4, 1238-46 (2003)). RNA was extracted from cells using RNAeasy columns (Qiagen, Valencia, Calif., USA), complementary DNA was prepared as recommended (Bio-Rad Laboratories, Hercules, Calif., USA) and used as template for real time PCR. The expression of Foxp3 was quantified with specific primers and probes (Applied Biosystems, Foster City, Calif., USA) on the GeneAmp 5500 Sequence Detection System (Applied Biosystems). Expression was normalized to the expression of the housekeeping gene, GAPDH.
TCDD was also used to characterize the functional relationship between AHR and Foxp3.

[6] = tested on: CD4+Foxp3:GFP- T cells; assay: In vitro conversion of CD4+Foxp3:GFP- T cells into Treg; type: cell-based, mouse; settings: antibodies to CD3 and CD28 in the presence of TCDD, 5 days
Description: CD4+ T cells were purified from Foxp3gfp knock in mice using anti-CD4 beads (Miltenyi, Auburn, Calif., USA) and sorted (FACSAria™ cell sorter, BD Biosciences) into naive CD4^+ Foxp3:GFP^− or CD4^+ Foxp3:GFP T cells. CD4^+ Foxp3:GFP^− T cells were stimulated with plate bound 1 μg/ml of anti-CD3 (145-2C11, eBioscience) and 2 μg/ml of anti-CD28 (37.51, eBioscience) for 5 days, supplemented with recombinant IL-2 (50 U/ml) at day 2 and 4, and analyzed by FACS at day 5 for their differentiation into […]. TGFβ1 (2.5 ng/ml) was used as a positive control.
To establish if TCDD triggered the conversion of CD4^+Foxp3^− T cells into new Foxp3^+ Treg cells, FACS sorted CD4^+Foxp3:GFP− T cells were activated in vitro with antibodies to CD3 and CD28 in the presence of TCDD, and the generation of CD4^+Foxp3:GFP^+ Treg was followed by FACS. TGFb1 was used as a positive control.

[7] = tested on: mutant AHR; settings: Okey et al. 1989; cited from earlier work

Clc1cc2c(cc1Cl)Oc1cc(Cl)c(Cl)cc1O2 [TCDD, 2,3,7,8 tetrachlorodibenzo-p-dioxin]
renilla luciferase activity (murine Foxp3 expression) [1]: increased in the presence of TCDD in a dose-dependent manner
IgG serum antibodies to myelin antigens [2]: significant decrease in IgG serum antibodies to 97 myelin antigens
T cell apoptosis (annexin-FITC staining) ([3]; antibodies to CD3): did not increase T cell apoptosis
proliferative response ([3]; antibodies to CD3, 72 hours): did not decrease the proliferative response
Mean day of onset (Mean ± SD) [4]: 17.3 ± 3.0 days
Mean maximum score (mean ± SD) [4]: 2.2 ± 1.4
progression of EAE [4]: did not inhibit the progression of EAE
zFoxp3 expression [5]: dose-dependent increase in zFoxp3 expression
conversion of cells in culture into CD4+Foxp3:GFP+ Treg [6]: approximately 13%
reduction in affinity of mutant AHR (d allele) for TCDD [7]: 10 fold

Reference: patent publication US11253589B2, “Modulation of the immune response” (priority 2007, dated 2022)
